Measured values from paper doi:10.1101/2024.05.02.592243v1, “Vestibular Modulation by Stimulant Derivatives in a Pentameric Ligand-Gated Ion Channel” (biorxiv, 2024).

Legend:
sTeLIC [1] = target: T1, sTeLIC (endosymbiont of Tevnia jerichonana, UniProt G2FID1); assay: two-electrode voltage clamp, Xenopus laevis oocytes; assay type: cell-based; parameters: gene TevJSym_bc00020; homopentamer (C5); oocyte rows: sTeLIC cDNA in vector pMT3, Xenopus laevis oocytes; details: pH 8.5 (~EC20), 30-s coapplication, -40 mV
T1 sequence (G2FID1 1-320): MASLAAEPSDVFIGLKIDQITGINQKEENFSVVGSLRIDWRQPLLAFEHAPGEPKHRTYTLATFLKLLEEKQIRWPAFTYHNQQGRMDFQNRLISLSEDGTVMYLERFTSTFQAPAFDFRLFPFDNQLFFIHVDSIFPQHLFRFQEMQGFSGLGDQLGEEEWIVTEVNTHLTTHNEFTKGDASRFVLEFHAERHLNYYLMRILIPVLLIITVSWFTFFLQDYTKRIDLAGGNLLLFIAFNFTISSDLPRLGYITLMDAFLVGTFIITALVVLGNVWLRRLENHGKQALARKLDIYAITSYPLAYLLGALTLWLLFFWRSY

sTeLIC [2] = target: T1, sTeLIC; assay: cryo-EM structure; assay type: binding; parameters: gene TevJSym_bc00020; homopentamer (C5); oocyte rows: sTeLIC cDNA in vector pMT3, Xenopus laevis oocytes; structures: N-terminal MBP fusion (pET20b, E. coli C43(DE3)), MBP cut off with thrombin; details: pH 7.5, saposin nanodisc, 2 mM FFC-8; density in vestibular site, open state
sTeLIC [3] = target: T1, sTeLIC; assay: X-ray co-crystal structure, […] A, anomalous Br signal; assay type: binding; parameters: gene TevJSym_bc00020; homopentamer (C5); oocyte rows: sTeLIC cDNA in vector pMT3, Xenopus laevis oocytes; structures: N-terminal MBP fusion (pET20b, E. coli C43(DE3)), MBP cut off with thrombin; details: pH 8.0, DDM/NDG detergent, 3 mM ligand; vestibular site, open state

Row | SMILES | % modulation (sTeLIC [1]; positive modulator, micromolar concentrations) | cryo-EM structure (sTeLIC [2]) | % modulation (sTeLIC [1]; positive allosteric modulator, vestibular site, up to 200 uM) | X-ray co-crystal structure, 3.2 A, anomalous Br signal (sTeLIC [3])
1 | C[N+](C)(C)CCOP(=O)([O-])OCCC(F)(F)C(F)(F)C(F)(F)C(F)(F)C(F)(F)C(F)(F)F [FFC-8] | micromolar concentrations of FFC-8 potentiated sTeLIC currents in oocytes | This density could reasonably accommodate fluorinated fos-choline-8 (FFC-8) | – | –
2 | C[C@H](N)Cc1ccc(Br)cc1 [BrAmp] | – | – | BrAmp showed positive modulatory effects similar to BrCA | Anomalous signal from the bromine atom of BrAmp allowed definitive placement in the vestibular pocket
